# In article PMC6199744, “Development of Chemical Proteomics for the Folateome and Analysis of the Kinetoplastid Folateome” (ACS Infectious Diseases, 2018):
# Read-outs that look alike come from different tables or passages of the source.
# Test system: T. brucei lysate proteins
# Type: binding, Trypanosoma brucei
# Conditions: vehicle control = 1
structure (smiles),measurement,setting,value
NCCOCCOCC(=O)Nc1nc2ncc(CNc3ccc(C(=O)NC(CCC(=O)O)C(=O)O)cc3)nc2c(=O)[nH]1 (stereo not shown) [compound 6],fold change,"protein TB427.06.2550 RNA-BINDING PROTEIN, PUTATIVE",0.94
same,fold change,"protein TB427.06.3500 ENDOSOMAL T[…] RME-8, PUTATIVE",0.83
same,fold change,"protein TB427.06.3630 SPHINGOSINE 1-PHOSPHATE LYASE, PUTATIVE",0.95
same,fold change,"protein TB427.06.3650 ADP-RI[…], PUTATIVE",0.98
same,fold change,"protein TB427.06.3670 PAR[…] COMPONENT, PUTATIVE",0.88
same,fold change,"protein TB427.06.4890 S-ADENOSYL[…], PUTATIVE",1.19
same,fold change,"protein TB427.06.700 ALANYL-TRNA SYNTHETASE, PUTATIVE",0.97
same,fold change vs vehicle control,"protein TB427.07.1300 PROTEIN DISULFIDE ISOMERASE, PUTATIVE",1.37
same,fold change,"protein TB427.07.2340 40S RIBOSOMAL PROTEIN S15, PUTATIVE",0.89
same,fold change,"protein TB427.07.2770 HY[…], CONSERVED",0.86
same,fold change,"protein TB427.07.3530 HY[…], CONSERVED",0.98
same,fold change,"protein TB427.07.3980 IMMU[…], PUTATIVE",0.79
same,fold change vs vehicle control,"protein TB427.07.4170 FATTY ACID ELONGASE, PUTATIVE",0.97
same,fold change,"protein TB427.07.4180 FATTY ACID ELONGASE, PUTATIVE",0.95
same,fold change,"protein TB427.07.4970 GLUTAMINE SYNTHETASE, PUTATIVE",0.85
same,fold change,"protein TB427.07.7070 HY[…], CONSERVED",0.92
same,fold change vs vehicle control,"protein TB427.07.7500 THYMINE-7-HYDROXYLASE, PUTATIVE",0.35
same,fold change,"protein TB427.08.2060 HY[…], CONSERVED",0.87
same,fold change,"protein TB427.08.2080 HY[…], CONSERVED",1.19
same,fold change,"protein TB427.08.3490 HY[…], CONSERVED",0.98
same,fold change,"protein TB427.08.3530 GLYCEROL-3-PHOSPHATE DEH[…]+], GLYCOSOMAL",1
same,fold change vs vehicle control,protein TB427.08.3660 PROTEIN TRANSPORT PROTEIN SEC23,0.99
same,fold change vs vehicle control,"protein TB427.08.3750 NUCLEOLAR PROTEIN, PUTATIVE",0.96
same,fold change,"protein TB427.08.3870 HY[…], CONSERVED",0.99
same,fold change,"protein TB427.08.4210 HY[…], CONSERVED",1.19
same,fold change,"protein TB427.08.650 CATION-TR[…], PUTATIVE",0.94
same,fold change,"protein TB427.10.10020 HY[…], CONSERVED",0.97
same,fold change,"protein TB427.10.10350 PROTEIN KINASE, PUTATIVE",0.86
same,fold change,"protein TB427.10.10360 MICROTUBULE-[…], PUTATIVE",0.85
same,fold change vs vehicle control,"protein TB427.10.10610 PROTEIN TYROSINE PHOSPHATASE, PUTATIVE",1.7
same,fold change vs vehicle control,"protein TB427.10.1100 60S RIBOSOMAL PROTEIN L9, PUTATIVE",1.14
same,fold change vs vehicle control,"protein TB427.10.12510 P-TYPE H+-ATPASE, PUTATIVE",1.28
same,fold change,"protein TB427.10.12710 HEAT SHOCK PROTEIN, PUTATIVE",1.53
same,fold change vs vehicle control,"protein TB427.10.14470 INTR[…] PROTEIN IFT140, PUTATIVE",1.46
same,fold change,"protein TB427.10.1450 HY[…], CONSERVED",0.97
same,fold change vs vehicle control,"protein TB427.10.14550 ATP-DEPENDENT DEAD/H RNA HELICASE, PUTATIVE",1.1
same,fold change vs vehicle control,"protein TB427.10.14930 HY[…], CONSERVED",0.95
same,fold change vs vehicle control,"protein TB427.10.14950 RNA BINDING PROTEIN, PUTATIVE",0.98
same,fold change,"protein TB427.10.14990 INTR[…] PROTEIN IFT80/CHE2, PUTATIVE",1.1
same,fold change,protein TB427.10.15720 […]-ATP-ASE SUBUNIT 9,0.84
same,fold change,protein TB427.10.2020 HEXOKINASE,1.29
same,fold change,"protein TB427.10.2290 CHAPERONE PROTEIN DNAJ, PUTATIVE",0.86
same,fold change,protein TB427.10.2440 METACASPASE MCA4,0.89
same,fold change vs vehicle control,"protein TB427.10.3470 HY[…], CONSERVED",1.1
same,fold change vs vehicle control,"protein TB427.10.5810 HY[…], CONSERVED",1.81
same,fold change,"protein TB427.10.6150 […]/BEIGE PROTEIN, PUTATIVE",0.67
same,fold change,"protein TB427.10.6310 MAJOR VAULT PROTEIN, PUTATIVE",0.93
same,fold change,"protein TB427.10.730 ATP SYNTHASE, PUTATIVE",0.83
same,fold change vs vehicle control,"protein TB427.10.7620 MIT[…]-DEPENDENT ZINC METALLOPEPTIDASE, PUTATIVE",0.98
same,fold change vs vehicle control,protein TB427.10.8230 PROTEIN DISULFIDE ISOMERASE,1.84
same,fold change,"protein TB427.10.8910 HY[…], CONSERVED",0.91
same,fold change vs vehicle control,protein TB927.10.13290 ETHANOLAMINE PHOSPHOTRANSFERASE (EPT),1.14
same,fold change vs vehicle control,protein TB927.10.13780 GLYCOGEN SYNTHASE KINASE 3,0.99
same,fold change vs vehicle control,"protein TB927.10.14980 INTR[…] PROTEIN IFT52, PUTATIVE",1.23
same,fold change vs vehicle control,"protein TB927.10.2640 INTR[…] PROTEIN IFT81, PUTATIVE",0.98
same,fold change vs vehicle control,protein TB927.10.2890 ENOLASE,1.58
same,fold change,protein TB927.10.2980 […]-ATPASE SUBUNIT 11,0.89
same,fold change,protein TB927.10.3990 DHH1,1.1
same,fold change,"protein TB927.10.4180 TFIIF-[…] PHOSPHATASE, PUTATIVE",1
same,fold change vs vehicle control,protein TB927.10.4570 […] 2,1.74
same,fold change,"protein TB927.10.5370 40S RIBOSOMAL PROTEIN S10, PUTATIVE",0.89
same,fold change,"protein TB927.10.5500 HY[…], CONSERVED",0.92
same,fold change vs vehicle control,"protein TB927.10.560 40S RIBOSOMAL PROTEINS S11, PUTATIVE",1.25
same,fold change,protein TB927.10.6050 CLATHRIN HEAVY CHAIN,0.85
same,fold change,protein TB927.10.7090 A[…],1.37
same,fold change vs vehicle control,"protein TB927.10.8940 HY[…], CONSERVED",0.88
same,fold change,protein TB927.2.2770 HY[…] TB927 2 2770,1.1
same,fold change,"protein TB927.2.3800 MRNA […], PUTATIVE",0.69
same,fold change,"protein TB927.3.1240 PROTEIN PHOSPHATASE 2A, PUTATIVE",0.98
same,fold change vs vehicle control,protein TB927.3.2960 INOSINE-ADENOSINE-GUANOSINE-[…],1.36
same,fold change,protein TB927.3.3270 ATP-DEPENDENT PHOSPHOFRUCTOKINASE,0.93
same,fold change vs vehicle control,"protein TB927.3.3450 ADP-RI[…]-LIKE PROTEIN 3A, PUTATIVE",2.16
same,fold change vs vehicle control,"protein TB927.3.3490 HIGH MOBILITY GROUP PROTEIN, PUTATIVE",1.55
same,fold change,protein TB927.3.3780 TRYPAREDOXIN,0.94
same,fold change vs vehicle control,"protein TB927.3.5120 HY[…], CONSERVED (Ankyrin repeats (3 copies), putative)",1.38
same,fold change vs vehicle control,"protein TB927.3.740 HY[…], CONSERVED",0.97
same,fold change vs vehicle control,"protein TB927.4.2740 HY[…], CONSERVED (p25-alpha, putative)",1.55
same,fold change,"protein TB927.4.3590 T[…] 1-BETA, PUTATIVE",1.46
same,fold change vs vehicle control,"protein TB927.4.3820 HY[…], CONSERVED",0.99
same,fold change,"protein TB927.4.5310 SERINE/THREONINE-PROTEIN KINASE A, PUTATIVE",0.95
same,fold change,"protein TB927.5.1630 HY[…], CONSERVED",0.86
same,fold change,"protein TB927.5.3220 SIGNAL PEPTIDASE TYPE I, PUTATIVE",0.87
same,fold change vs vehicle control,"protein TB927.5.4440 DYNEIN LIGHT CHAIN, PUTATIVE",0.98
same,fold change,"protein TB927.6.2200 HY[…], CONSERVED",1
same,fold change vs vehicle control,"protein TB927.7.1750 60S RIBOSOMAL PROTEIN L7, PUTATIVE",1.31
same,fold change,protein TB927.7.2140 HY[…],0.83
same,fold change vs vehicle control,"protein TB927.7.4470 HY[…], CONSERVED",1.18
same,fold change vs vehicle control,"protein TB927.7.7430 ATP SYNTHASE ALPHA CHAIN, MIT[…]",1.18
same,fold change,"protein TB927.8.1510 ATP-DEPENDENT DEAD/H RNA HELICASE, PUTATIVE",0.96
same,fold change,protein TB927.8.1990 PEROXIDOXIN,0.97
same,fold change,protein TB927.8.4770 SMALL GTP-BINDING PROTEIN RAB18,0.96
